Experimental data published in US20240246964A1 (Arbutus Biopharma Corporation, priority 2021, published 2024).

Target: human PD-L1 (Homo sapiens (Human), UniProt Q9NZQ7)
Assay: T cell activation luciferase reporter cell culture system (T Cell Activation Assay)
Format: cell-based
Conditions: luciferase reporter assay; PD-L1 aAPC/CHO-K1 cells with PD-1 effector Jurkat T cells

Chain of human PD-L1 (Q9NZQ7 19-290): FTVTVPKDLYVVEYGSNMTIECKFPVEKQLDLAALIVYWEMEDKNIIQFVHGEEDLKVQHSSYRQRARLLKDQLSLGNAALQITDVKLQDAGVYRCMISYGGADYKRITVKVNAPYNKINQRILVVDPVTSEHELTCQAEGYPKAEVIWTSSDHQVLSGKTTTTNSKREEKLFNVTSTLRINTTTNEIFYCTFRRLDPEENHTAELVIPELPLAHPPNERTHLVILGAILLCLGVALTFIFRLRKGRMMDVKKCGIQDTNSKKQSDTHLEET

Row | Compound | EC50 [nM]
1 | COc1cc(-c2nccc(-c3cccc(-c4ccc(CN5CCC(NC(C)=O)CC5)c(OC)n4)c3C)c2Cl)ccc1CN1CCC(NC(C)=O)CC1 [Example 467, N-(1-((6-(3-(2-(4-((4-acetamidopiperidin-1-yl)methyl)-3-methoxyphenyl)-3-chloropyridin-4-yl)-2-methylphenyl)-2-methoxypyridin-3-yl)methyl)piperidin-4-yl)acetamide] | ≥ 10000
2 | COc1cc(-c2nccc(-c3cccc(-c4ccc(CN(C)C5CCOCC5)c(OC)n4)c3Cl)c2Cl)ccc1CNC1CCOCC1 [Example 468, N-((6-(2-chloro-3-(3-chloro-2-(3-methoxy-4-(((tetrahydro-2H-pyran-4-yl)amino)methyl)phenyl)pyridin-4-yl)phenyl)-2-methoxypyridin-3-yl)methyl)-N-methyltetrahydro-2H-pyran-4-amine] | 97.1
3 | COc1cc(-c2nccc(-c3cccc(-c4ccc(CN(C)C5CCN(C(C)=O)CC5)c(OC)n4)c3Cl)c2Cl)ccc1CNC1CCOCC1 [Example 469, 1-(4-(((6-(2-chloro-3-(3-chloro-2-(3-methoxy-4-(((tetrahydro-2H-pyran-4-yl)amino)methyl)phenyl)pyridin-4-yl)phenyl)-2-methoxypyridin-3-yl)methyl)(methyl)amino)piperidin-1-yl)ethan-1-one] | 79.3
4 | COc1cc(-c2nccc(-c3cccc(-c4ccc(CN(C)C[C@@H]5CCC(=O)N5)c(OC)n4)c3Cl)c2Cl)ccc1CN(C)C[C@@H]1CCC(=O)N1 [Example 472, (S)-5-((((6-(2-Chloro-3-(3-chloro-2-(3-methoxy-4-((methyl(((S)-5-oxopyrrolidin-2-yl)methyl)amino)methyl)phenyl)pyridin-4-yl)phenyl)-2-methoxypyridin-3-yl)methyl)(methyl)amino)methyl)pyrrolidin-2-one] | 31.7
5 | COc1nc(-c2cccc(-c3ccnc(-c4cc(OC)c5nc(CN6CCOCC6)cn5c4)c3Cl)c2Cl)ccc1CNC1CCN(C(C)=O)CC1 [Example 475, 1-(4-(((6-(2-Chloro-3-(3-chloro-2-(8-methoxy-2-(morpholinomethyl)imidazo[1,2-a]pyridin-6-yl)pyridin-4-yl)phenyl)-2-methoxypyridin-3-yl)methyl)amino)piperidin-1-yl)ethan-1-one] | 3770
6 | COc1nc(-c2cccc(-c3ccnc(-c4cc(OC)c5nc(CN6CCC(F)(F)C6)cn5c4)c3Cl)c2Cl)ccc1CNC1CCN(C(C)=O)CC1 [Example 476, 1-(4-(((6-(2-Chloro-3-(3-chloro-2-(2-((3,3-difluoropyrrolidin-1-yl)methyl)-8-methoxyimidazo[1,2-a]pyridin-6-yl)pyridin-4-yl)phenyl)-2-methoxypyridin-3-yl)methyl)amino)piperidin-1-yl)ethan-1-one] | ≥ 10000
7 | COc1cc(-c2nccc(-c3cccc(-c4ccc(CNC5CCN(C(C)=O)CC5)c(OC)n4)c3Cl)c2Cl)ccc1CNCCN1CCNC(=O)C1 [Example 479, 4-(2-((4-(4-(3-(5-(((1-Acetylpiperidin-4-yl)amino)methyl)-6-methoxypyridin-2-yl)-2-chlorophenyl)-3-chloropyridin-2-yl)-2-methoxybenzyl)amino)ethyl)piperazin-2-one] | 59.3
8 | COCC(=O)N1CCC(NCc2ccc(-c3cccc(-c4ccnc(-c5ccc(CNC6CCN(C(C)=O)CC6)c(OC)c5)c4Cl)c3Cl)nc2OC)CC1 [Example 481, 1-(4-(((6-(3-(2-(4-(((1-Acetylpiperidin-4-yl)amino)methyl)-3-methoxyphenyl)-3-chloropyridin-4-yl)-2-chlorophenyl)-2-methoxypyridin-3-yl)methyl)amino)piperidin-1-yl)-2-methoxyethan-1-one] | 15.9
9 | COc1cc(-c2nccc(-c3cccc(-c4ccc(CNC5CCN(C(C)=O)CC5)c(OC)n4)c3Cl)c2Cl)ccc1CN1CC2(C1)CN(C(C)=O)C2 [Example 482, 1-(4-(((6-(3-(2-(4-((6-acetyl-2,6-diazaspiro[3.3]heptan-2-yl)methyl)-3-methoxyphenyl)-3-chloropyridin-4-yl)-2-chlorophenyl)-2-methoxypyridin-3-yl)methyl)amino)piperidin-1-yl)ethan-1-one] | 20.3
10 | COc1cc(-c2nccc(-c3cccc(-c4ccc(CNC5CCSCC5)c(OC)n4)c3Cl)c2Cl)ccc1CNC1CCSCC1 [Example 484, N-((6-(2-Chloro-3-(3-chloro-2-(3-methoxy-4-(((tetrahydro-2H-thiopyran-4-yl)amino)methyl)phenyl)pyridin-4-yl)phenyl)-2-methoxypyridin-3-yl)methyl)tetrahydro-2H-thiopyran-4-amine] | 195
11 | COc1cc(-c2nccc(-c3cccc(-c4ccc(CN5CC6(CCN(C(C)=O)CC6)C5)c(OC)n4)c3Cl)c2Cl)ccc1CN1CC2(CCN(C(C)=O)CC2)C1 [Example 485, 1-(2-((6-(3-(2-(4-((7-Acetyl-2,7-diazaspiro[3.5]nonan-2-yl)methyl)-3-methoxyphenyl)-3-chloropyridin-4-yl)-2-chlorophenyl)-2-methoxypyridin-3-yl)methyl)-2,7-diazaspiro[3.5]nonan-7-yl)ethan-1-one] | 212
12 | COc1nc(-c2ccnc(-c3cccc4c3CC[C@@H]4Nc3nc(OC)c(CNC[C@@H]4CCC(=O)N4)cc3C(F)(F)F)c2Cl)ccc1CNC1CCN(C(C)=O)CC1 [Example 486, (S)-5-((((6-(((S)-4-(5-(((1-Acetylpiperidin-4-yl)amino)methyl)-3′-chloro-6-methoxy-[2,4′-bipyridin]-2′-yl)-2,3-dihydro-1H-inden-1-yl)amino)-2-methoxy-5-(trifluoromethyl)pyridin-3-yl)methyl)amino)methyl)pyrrolidin-2-one] | 114
13 | COc1cc(-c2nccc(-c3cccc(-c4ccc(CN5CCC(O)CC5)c(OC)n4)c3Cl)c2Cl)ccc1CNC1CCN(C(C)=O)CC1 [Example 487, 1-(4-((4-(3-Chloro-4-(2-chloro-3-(5-((4-hydroxypiperidin-1-yl)methyl)-6-methoxypyridin-2-yl)phenyl)pyridin-2-yl)-2-methoxybenzyl)amino)piperidin-1-yl)ethan-1-one] | 39.9
14 | COc1cc(-c2nccc(-c3cccc(-c4ccc(CN[C@H]5CC[C@H](OC)CC5)c(OC)n4)c3Cl)c2Cl)ccc1CNC1CCN(C(C)=O)CC1 [Example 488, 1-(4-((4-(3-Chloro-4-(2-chloro-3-(6-methoxy-5-((((1r,4r)-4-methoxycyclohexyl)amino)methyl)pyridin-2-yl)phenyl)pyridin-2-yl)-2-methoxybenzyl)amino)piperidin-1-yl)ethan-1-one] | 34
15 | COc1cc(-c2nccc(-c3cccc(-c4ccc(CNC5CCN(C(C)=O)CC5)c(OC)n4)c3Cl)c2Cl)ccc1CN1CCC[C@@H](O)C1 [Example 489, (R)-1-(4-(((6-(2-Chloro-3-(3-chloro-2-(4-((3-hydroxypiperidin-1-yl)methyl)-3-methoxyphenyl)pyridin-4-yl)phenyl)-2-methoxypyridin-3-yl)methyl)amino)piperidin-1-yl)ethan-1-one] | 28.5
16 | COCC(=O)N1CCC(NCc2ccc(-c3cccc(-c4ccnc(-c5ccc(CN6CC7(CNC(=O)C7)C6)c(OC)c5)c4Cl)c3Cl)nc2OC)CC1 [Example 490, 2-(4-(3-Chloro-4-(2-chloro-3-(6-methoxy-5-(((1-(2-methoxyacetyl)piperidin-4-yl)amino)methyl)pyridin-2-yl)phenyl)pyridin-2-yl)-2-methoxybenzyl)-2,6-diazaspiro[3.4]octan-7-one] | 17.9
17 | COCC(=O)N1CCC(NCc2ccc(-c3cccc(-c4ccnc(-c5ccc(CN6CC7(C6)CN(C(C)=O)C7)c(OC)c5)c4Cl)c3Cl)nc2OC)CC1 [Example 491, 1-(4-(((6-(3-(2-(4-((6-Acetyl-2,6-diazaspiro[3.3]heptan-2-yl)methyl)-3-methoxyphenyl)-3-chloropyridin-4-yl)-2-chlorophenyl)-2-methoxypyridin-3-yl)methyl)amino)piperidin-1-yl)-2-methoxyethan-1-one] | 31.8
18 | COc1cc(-c2nccc(-c3cccc(-c4ccc(CNC5CCOCC5)c(OC)n4)c3Cl)c2Cl)ccc1CN1CC2(C1)CN(C(C)=O)C2 [Example 492, 1-(6-(4-(3-chloro-4-(2-chloro-3-(6-methoxy-5-(((tetrahydro-2H-pyran-4-yl)amino)methyl)pyridin-2-yl)phenyl)pyridin-2-yl)-2-methoxybenzyl)-2,6-diazaspiro[3.3]heptan-2-yl)ethan-1-one] | 18.5
19 | COc1cc(-c2nccc(-c3cccc(-c4ccc(CN5CC6(CNC(=O)C6)C5)c(OC)n4)c3Cl)c2Cl)ccc1CNC1CCOCC1 [Example 495, 2-((6-(2-Chloro-3-(3-chloro-2-(3-methoxy-4-(((tetrahydro-2H-pyran-4-yl)amino)methyl)phenyl)pyridin-4-yl)phenyl)-2-methoxypyridin-3-yl)methyl)-2,6-diazaspiro[3.4]octan-7-one] | 22.8
20 | COc1cc(-c2nccc(-c3cccc(-c4ccc(CN5CC6(CNC(=O)C6)C5)c(OC)n4)c3Cl)c2Cl)ccc1CN[C@H]1C[C@](C)(O)C1 [Example 496, 2-((6-(2-Chloro-3-(3-chloro-2-(4-((((1r,3r)-3-hydroxy-3-methylcyclobutyl)amino)methyl)-3-methoxyphenyl)pyridin-4-yl)phenyl)-2-methoxypyridin-3-yl)methyl)-2,6-diazaspiro[3.4]octan-7-one] | 29.1
21 | COc1cc(-c2nccc(-c3cccc(-c4ccc(CN5CC6(CNC(=O)C6)C5)c(OC)n4)c3Cl)c2Cl)ccc1CN1CC2(CC(O)C2)C1 [Example 497, 2-((6-(2-Chloro-3-(3-chloro-2-(4-((6-hydroxy-2-azaspiro[3.3]heptan-2-yl)methyl)-3-methoxyphenyl)pyridin-4-yl)phenyl)-2-methoxypyridin-3-yl)methyl)-2,6-diazaspiro[3.4]octan-7-one] | 30.2
22 | COc1cc(-c2nccc(-c3cccc(-c4ccc(CN5CC6(CNC(=O)C6)C5)c(OC)n4)c3Cl)c2Cl)ccc1CN1CC(C)(O)C1 [Example 498, 2-((6-(2-Chloro-3-(3-chloro-2-(4-((3-hydroxy-3-methylazetidin-1-yl)methyl)-3-methoxyphenyl)pyridin-4-yl)phenyl)-2-methoxypyridin-3-yl)methyl)-2,6-diazaspiro[3.4]octan-7-one] | 26.5
